In patent US20110190834A1, “DEVICES AND METHODS FOR SUPPRESSION OF SYMPATHOEXCITATION” (priority 2010, published 2011):
Where two headings read alike, the source gives them in different places.

Tests used:
[1] = European (EMIAT) and Canadian (CAMIAT) post-myocardial infarction studies; cited from earlier work
[2] = Heart rate and blood pressure at peak exercise and in recovery, with atropine given during exercise; type: in vivo, human
Protocol: In experiments performed during development of embodiments of the present invention, the parasympathetic effects on cardiac electrophysiology during the post-exercise recovery period were studied. Subjects underwent upright bicycle exercise testing on two occasions. Continuous 12-lead ECG monitoring was performed using a commercially available system (Quest Exercise Stress System, Burdick, Deerfield Wis.) for a baseline period of 5 minutes prior to exercise. Subjects underwent a 16-minute submaximal exercise protocol on a stationary bicycle with an initial work load of 50 Watts followed by increases to 75 Watts at 4 minutes and 100 Watts at 8 minutes, as tolerated by the patient. Continuous ECG was recorded for up to 45 minutes of recovery. Blood samples for determination of plasma epinephrine and norepinephrine samples were taken during the rest period, at minutes 8 and 15 of exercise, and during the recovery period at 5, 10, 20, 30, and 45 minutes after cessation of exercise. […]

[3] = Atropine test
[4] = atropine test versus baseline test
[5] = peak exercise, iv atropine 0.04 mg/kg from minute 12 of exercise
[6] = recovery 5 min, iv atropine 0.04 mg/kg during exercise
[7] = recovery 10 min, iv atropine 0.04 mg/kg during exercise
[8] = recovery 20 min, iv atropine 0.04 mg/kg during exercise
[9] = recovery 30 min, iv atropine 0.04 mg/kg during exercise

SMILES | effect on total mortality [1] | change in diastolic blood pressure [2, 4] | change in heart rate [2, 4] | change in systolic blood pressure [2, 4] | Diastolic BP [2, 5] | Systolic BP [2, 5] | Diastolic BP [2, 6] | HEART RATE [2, 6] | Systolic BP [2, 6] | Diastolic BP [2, 7] | HEART RATE [2, 7] | Systolic BP [2, 7] | Diastolic BP [2, 8] | HEART RATE [2, 8] | Systolic BP [2, 8] | Diastolic BP [2, 9] | HEART RATE [2, 9] | Systolic BP [2, 9] | ln(NE) mean ([3]; 30th min recovery, N=81) | ln(NE) mean ([3]; rest (before exercise and before atropine), N=90)
CCCCc1oc2ccccc2c1C(=O)c1cc(I)c(OCCN(CC)CC)c(I)c1 [Amiodarone] | has not been shown to have a beneficial effect | – | – | – | – | – | – | – | – | – | – | – | – | – | – | – | – | – | – | –
CN1[C@@H]2CC[C@H]1C[C@@H](OC(=O)C(CO)c1ccccc1)C2 (some centres unmarked) [Atropine, atropine] | – | no detectable changes | large changes in heart rate | no detectable changes | 83 ± 14 mmHg | 162 ± 25 mmHg | 78 ± 9 mmHg | 110 ± 16 bpm | 122 ± 15 mmHg | 78 ± 9 mmHg | 106 ± 16 bpm | 120 ± 16 mmHg | 78 ± 11 mmHg | 102 ± 15 bpm | 118 ± 14 mmHg | 79 ± 9 mmHg | 99 ± 14 bpm | 117 ± 14 mmHg | 6.31 | 6.38
